pEC50: −log10 of the molar value.
Test system: HBV (encapsidated HBV DNA, HepG2.2.15 cells)
Assay: HBV replication inhibition assay, BDNA assay in HepG2.2.15 cells
Assay type: cell-based
Details: Activity in BDNA-assay
Outline: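 HepG2.2.15 cells (stably integrated HBV, 40,000/well) treated with serially diluted compound in 0.5% DMSO for 6 days, medium and compound refreshed at day 3. DNase-treated supernatant lysed with proteinase K; encapsidated HBV DNA quantified by bDNA, percent inhibition versus DMSO controls, EC50 by nonlinear fit.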

Compound | pEC50
C=CC(O)C1CN(C)C(=O)c2c3c(nn2C1)CC(C)N(C(=O)Nc1ccc(F)c(C(F)(F)F)c1)C3 [Compound 122_D1, (3R,8S*)—N-(4-fluoro-3-(trifluoromethyl)phenyl)-8-((R*)-1-hydroxyallyl)-3,10-dimethyl-11-oxo-1,3,4,7,8,9,10,11-octahydro-2H-pyrido[4′,3′:3,4]pyrazolo[1,5-a][1,4]diazepine-2-carboxamide] | 7.00 to 9.00
CN1CC(CNCC(F)F)Cn2nc3c(c2C1=O)CN(C(=O)Nc1ccc(F)c(C(F)(F)F)c1)CC3 (single isomer, unassigned) [Compound 119_E1, (R*)-8-(((2,2-difluoroethyl)amino)methyl)-N-(4-fluoro-3-(trifluoromethyl)phenyl)-10-methyl-11-oxo-1,3,4,7,8,9,10,11-octahydro-2H-pyrido[4′,3′:3,4]pyrazolo[1,5-a][1,4]diazepine-2-carboxamide] | 6.30 to 7.00
CCC(O)C1CN(C)C(=O)c2c3c(nn2C1)CCN(C(=O)Nc1ccc(F)c(C(F)(F)F)c1)C3 (single isomer, unassigned) [Compound 099_E4, (R*)—N-(4-fluoro-3-(trifluoromethyl)phenyl)-8-((R*)-1-hydroxypropyl)-10-methyl-11-oxo-1,3,4,7,8,9,10,11-octahydro-2H-pyrido[4′,3′:3,4]pyrazolo[1,5-a][1,4]diazepine-2-carboxamide] | 6.30 to 7.00
C[C@@H]1Cc2nn3c(c2CN1C(=O)Nc1ccc(F)c(Br)c1F)C(=O)N(C)CC(CO)C3 (single isomer, unassigned) [Compound 084_D2, (3R,8R*)—N-(3-bromo-2,4-difluorophenyl)-8-(hydroxymethyl)-3,10-dimethyl-11-oxo-1,3,4,7,8,9,10,11-octahydro-2H-pyrido[4′,3′:3,4]pyrazolo[1,5-a][1,4]diazepine-2-carboxamide] | 7.00 to 9.00
CCC(O)C1CN(C)C(=O)c2c3c(nn2C1)CCN(C(=O)Nc1ccc(F)c(C#N)c1F)C3 (single isomer, unassigned) [Compound 098_E2, (S*)—N-(3-cyano-2,4-difluorophenyl)-8-((R*)-1-hydroxypropyl)-10-methyl-11-oxo-1,3,4,7,8,9,10,11-octahydro-2H-pyrido[4′,3′:3,4]pyrazolo[1,5-a][1,4]diazepine-2-carboxamide] | 6.00 to 6.30

Same assay, conditions: Hepatitis B virus, HepG2.2.15, Activity in BDNA-assay

Compound | pEC50
CN1CCCCn2nc3c(c2C1=O)CN(C(=O)Nc1ccc(F)c(Cl)c1)CC3 [Compound 110, N-(3-chloro-4-fluorophenyl)-11-methyl-12-oxo-3,4,7,8,9,10,11,12-octahydropyrido[4′,3′:3,4]pyrazolo[1,5-a][1,4]diazocine-2 (1H)-carboxamide] | 7.00 to 9.00
C[C@@H]1Cc2nn3c(c2CN1C(=O)Nc1ccc(F)c(Br)c1)C(=O)N(CC(F)F)CCC3 [Compound 074, (R)—N-(3-bromo-4-fluorophenyl)-10-(2,2-difluoroethyl)-3-methyl-11-oxo-1,3,4,7,8,9,10,11-octahydro-2H-pyrido[4′,3′:3,4]pyrazolo[1,5-a][1,4]diazepine-2-carboxamide] | 7.00 to 9.00
CN1CC(N2CCC(F)(F)CC2)Cn2nc3c(c2C1=O)CN(C(=O)Nc1ccc(F)c(Cl)c1)CC3 (centres unmarked) [Compound 056, N-(3-chloro-4-fluorophenyl)-8-(4,4-difluoropiperidin-1-yl)-10-methyl-11-oxo-1,3,4,7,8,9,10,11-octahydro-2H-pyrido[4′,3′:3,4]pyrazolo[1,5-a][1,4]diazepine-2-carboxamide] | 6.30 to 7.00
CN1CC(N)Cn2nc3c(c2C1=O)CN(C(=O)Nc1ccc(F)c(Cl)c1)CC3 (centres unmarked) [Compound 019, 8-amino-N-(3-chloro-4-fluorophenyl)-10-methyl-11-oxo-1,3,4,7,8,9,10,11-octahydro-2H-pyrido[4′,3′:3,4]pyrazolo[1,5-a][1,4]diazepine-2-carboxamide] | 6.30 to 7.00
CN1CC(F)Cn2nc3c(c2C1=O)CN(C(=O)Nc1cc(Br)c(F)cc1F)CC3 (centres unmarked) [Compound 013, N-(5-bromo-2,4-difluorophenyl)-8-fluoro-10-methyl-11-oxo-1,3,4,7,8,9,10,11-octahydro-2H-pyrido[4′,3′:3,4]pyrazolo[1,5-a][1,4]diazepine-2-carboxamide] | 7.00 to 9.00
CN1CC(F)Cn2nc3c(c2C1=O)CN(C(=O)Nc1cc(Cl)c(F)cc1F)CC3 (centres unmarked) [Compound 012, N-(5-chloro-2,4-difluorophenyl)-8-fluoro-10-methyl-11-oxo-1,3,4,7,8,9,10,11-octahydro-2H-pyrido[4′,3′:3,4]pyrazolo[1,5-a][1,4]diazepine-2-carboxamide] | 7.00 to 9.00
C[C@@H]1Cc2nn3c(c2CN1C(=O)Nc1ccc(F)c(C#N)c1)C(=O)N(C)CC(F)(F)C3 [Compound 136, (R)—N-(3-cyano-4-fluorophenyl)-8,8-difluoro-3,10-dimethyl-11-oxo-1,3,4,7,8,9,10,11-octahydro-2H-pyrido[4′,3′:3,4]pyrazolo[1,5-a][1,4]diazepine-2-carboxamide] | 7.00 to 9.00
CNC1CN(C)C(=O)c2c3c(nn2C1)CCN(C(=O)Nc1ccc(F)c(Cl)c1)C3 (centres unmarked) [Compound 050, N-(3-chloro-4-fluorophenyl)-10-methyl-8-(methylamino)-11-oxo-1,3,4,7,8,9,10,11-octahydro-2H-pyrido[4′,3′:3,4]pyrazolo[1,5-a][1,4]diazepine-2-carboxamide] | 6.30 to 7.00
CN1CC(N2CCOCC2)Cn2nc3c(c2C1=O)CN(C(=O)Nc1ccc(F)c(Cl)c1)CC3 (centres unmarked) [Compound 021, N-(3-chloro-4-fluorophenyl)-10-methyl-8-morpholino-11-oxo-1,3,4,7,8,9,10,11-octahydro-2H-pyrido[4′,3′:3,4]pyrazolo[1,5-a][1,4]diazepine-2-carboxamide] | 6.30 to 7.00
CCOC(=O)C1(C)CN(C)C(=O)c2c3c(nn2C1)CCN(C(=O)Nc1ccc(F)c(Cl)c1)C3 (centres unmarked) [Compound 052, ethyl 2-((3-chloro-4-fluorophenyl)carbamoyl)-8,10-dimethyl-11-oxo-1,3,4,7,8,9,10,11-octahydro-2H-pyrido[4′,3′:3,4]pyrazolo[1,5-a][1,4]diazepine-8-carboxylate] | 6.30 to 7.00
CN1CC(C(O)C2CC2)Cn2nc3c(c2C1=O)CN(C(=O)Nc1ccc(F)c(Cl)c1)CC3 (centres unmarked) [Compound 036] | 7.00 to 9.00
C[C@@H]1Cc2nn3c(c2CN1C(=O)Nc1ccc(F)c(C(F)(F)F)c1F)C(=O)N(C)CC(CO)C3 (single isomer, unassigned) [Compound 083_D1, (3R,8S*)—N-(2,4-difluoro-3-(trifluoromethyl)phenyl)-8-(hydroxymethyl)-3,10-dimethyl-11-oxo-1,3,4,7,8,9,10,11-octahydro-2H-pyrido[4′,3′:3,4]pyrazolo[1,5-a][1,4] diazepine-2-carboxamide] | 7.00 to 9.00
CN1CC(CN2CCOCC2)Cn2nc3c(c2C1=O)CN(C(=O)Nc1ccc(F)c(Cl)c1)CC3 (centres unmarked) [Compound 063, N-(3-chloro-4-fluorophenyl)-10-methyl-8-(morpholinomethyl)-11-oxo-1,3,4,7,8,9,10,11-octahydro-2H-pyrido[4′,3′:3,4]pyrazolo[1,5-a][1,4]diazepine-2-carboxamide] | 7.00 to 9.00
CN1C(=O)c2c3c(nn2CC1CO)CCN(C(=O)Nc1ccc(F)c(Cl)c1)C3 (centres unmarked) [Compound 044, N-(3-chloro-4-fluorophenyl)-8-(hydroxymethyl)-9-methyl-10-oxo-3,4,7,8,9,10-hexahydropyrido[4′,3′:3,4]pyrazolo[1,5-a]pyrazine-2 (1H)-carboxamide] | 7.00 to 9.00
COC(=O)C1Cn2nc3c(c2C(=O)N1C)CN(C(=O)Nc1ccc(F)c(Cl)c1)CC3 (centres unmarked) [Compound 043, methyl 2-((3-chloro-4-fluorophenyl)carbamoyl)-9-methyl-10-oxo-1,2,3,4,7,8,9,10-octahydropyrido[4′,3′:3,4]pyrazolo[1,5-a]pyrazine-8-carboxylate] | 6.30 to 7.00
C[C@@H]1Cc2nn3c(c2CN1C(=O)Nc1ccc(F)c(C#N)c1)C(=O)N(C)CC1(CC(O)C1)C3 (stereo partly drawn) [Compound 141, (R)-N-(3-Cyano-4-fluorophenyl)-3-hydroxy-3′,10′-dimethyl-11′-oxo-1′,3′,4′,9′,10′,11′-hexahydro-2′H,7′H-spiro[cyclobutane-1,8′-pyrido[4′,3′:3,4]pyrazolo[1,5-a][1,4]diazepine]-2′-carboxamide] | 7.00 to 9.00
CN1CC(C(O)CC(F)F)Cn2nc3c(c2C1=O)CN(C(=O)Nc1ccc(F)c(Cl)c1)CC3 (centres unmarked) [Compound 116, N-(3-chloro-4-fluoro-phenyl)-8-(3,3-difluoro-1-hydroxy-propyl)-10-methyl-1-oxo-1,3,4,7,8,9-hexahydropyrido[2,3]pyrazolo[2,4-b][1,4]diazepine-2-carboxamide] | 7.00 to 9.00
CCCC(O)C1CN(C)C(=O)c2c3c(nn2C1)CCN(C(=O)Nc1ccc(F)c(Cl)c1)C3 (centres unmarked) [Compound 106, N-(3-chloro-4-fluoro-phenyl)-8-(1-hydroxybutyl)-10-methyl-1-oxo-1,3,4,7,8,9-hexahydropyrido[2,3]pyrazolo[2,4-b][1,4]diazepine-2-carboxamide] | 7.00 to 9.00
C[C@@H]1Cc2nn3c(c2CN1C(=O)Nc1ccc(F)c(C(F)(F)F)c1)C(=O)N(CC(F)F)CCC3 [Compound 073, (R)-10-(2,2-difluoroethyl)-N-(4-fluoro-3-(trifluoromethyl)phenyl)-3-methyl-11-oxo-1,3,4,7,8,9,10,11-octahydro-2H-pyrido[4′,3′:3,4]pyrazolo[1,5-a][1,4]diazepine-2-carboxamide] | 7.00 to 9.00
CN1CC(N2CCC(F)(F)C2)Cn2nc3c(c2C1=O)CN(C(=O)Nc1ccc(F)c(Cl)c1)CC3 (centres unmarked) [Compound 054, N-(3-chloro-4-fluorophenyl)-8-(3,3-difluoropyrrolidin-1-yl)-10-methyl-11-oxo-1,3,4,7,8,9,10,11-octahydro-2H-pyrido[4′,3′:3,4]pyrazolo[1,5-a][1,4]diazepine-2-carboxamide] | 6.30 to 7.00
CN1CC(F)Cn2nc3c(c2C1=O)CN(C(=O)Nc1ccc(F)c(C#N)c1)CC3 (centres unmarked) [Compound 009, N-(3-cyano-4-fluorophenyl)-8-fluoro-10-methyl-11-oxo-1,3,4,7,8,9,10,11-octahydro-2H-pyrido[4′,3′:3,4]pyrazolo[1,5-a][1,4]diazepine-2-carboxamide] | 7.00 to 9.00

— patent publication US10975077B2 (Novira Therapeutics, Inc., priority 2016, dated 2021)
